According to ChEMBL document CHEMBL3991601, “The target landscape of clinical kinase drugs” (Science, 2017):
The source made the active and inactive calls. Rule as the data show it, for most assays here: actives have a measured Kd and inactives only a lower limit.

Tests used:
[1] = biological target: Casein kinase I isoform delta (Homo sapiens, UniProt P48730)
[2] = biological target: RAC-gamma serine/threonine-protein kinase (Homo sapiens, UniProt Q9Y243)
[3] = biological target: T1, Delta(24)-sterol reductase (Homo sapiens, UniProt Q15392)
T1 sequence (Q15392 whole entry): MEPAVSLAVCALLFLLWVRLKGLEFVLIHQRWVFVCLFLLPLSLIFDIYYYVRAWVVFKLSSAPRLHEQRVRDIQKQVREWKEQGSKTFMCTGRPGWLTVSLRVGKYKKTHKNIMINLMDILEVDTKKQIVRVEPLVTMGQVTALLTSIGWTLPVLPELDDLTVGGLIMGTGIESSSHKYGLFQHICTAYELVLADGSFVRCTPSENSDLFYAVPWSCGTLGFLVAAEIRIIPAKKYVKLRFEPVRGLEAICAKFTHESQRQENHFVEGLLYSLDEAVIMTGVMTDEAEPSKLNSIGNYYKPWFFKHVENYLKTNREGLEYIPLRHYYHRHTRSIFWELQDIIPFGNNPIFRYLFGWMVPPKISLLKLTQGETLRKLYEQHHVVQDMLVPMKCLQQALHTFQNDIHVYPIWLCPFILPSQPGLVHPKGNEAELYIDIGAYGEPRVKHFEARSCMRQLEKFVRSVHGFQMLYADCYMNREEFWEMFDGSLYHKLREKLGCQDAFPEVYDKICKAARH

[4] = biological target: GTP-binding nuclear protein Ran (Homo sapiens, UniProt P62826)
[5] = biological target: Citron Rho-interacting kinase (Homo sapiens, UniProt O14578)
[6] = biological target: T2, Serine/threonine-protein kinase Nek9 (Homo sapiens, UniProt Q8TD19)
T2 sequence (Q8TD19 whole entry): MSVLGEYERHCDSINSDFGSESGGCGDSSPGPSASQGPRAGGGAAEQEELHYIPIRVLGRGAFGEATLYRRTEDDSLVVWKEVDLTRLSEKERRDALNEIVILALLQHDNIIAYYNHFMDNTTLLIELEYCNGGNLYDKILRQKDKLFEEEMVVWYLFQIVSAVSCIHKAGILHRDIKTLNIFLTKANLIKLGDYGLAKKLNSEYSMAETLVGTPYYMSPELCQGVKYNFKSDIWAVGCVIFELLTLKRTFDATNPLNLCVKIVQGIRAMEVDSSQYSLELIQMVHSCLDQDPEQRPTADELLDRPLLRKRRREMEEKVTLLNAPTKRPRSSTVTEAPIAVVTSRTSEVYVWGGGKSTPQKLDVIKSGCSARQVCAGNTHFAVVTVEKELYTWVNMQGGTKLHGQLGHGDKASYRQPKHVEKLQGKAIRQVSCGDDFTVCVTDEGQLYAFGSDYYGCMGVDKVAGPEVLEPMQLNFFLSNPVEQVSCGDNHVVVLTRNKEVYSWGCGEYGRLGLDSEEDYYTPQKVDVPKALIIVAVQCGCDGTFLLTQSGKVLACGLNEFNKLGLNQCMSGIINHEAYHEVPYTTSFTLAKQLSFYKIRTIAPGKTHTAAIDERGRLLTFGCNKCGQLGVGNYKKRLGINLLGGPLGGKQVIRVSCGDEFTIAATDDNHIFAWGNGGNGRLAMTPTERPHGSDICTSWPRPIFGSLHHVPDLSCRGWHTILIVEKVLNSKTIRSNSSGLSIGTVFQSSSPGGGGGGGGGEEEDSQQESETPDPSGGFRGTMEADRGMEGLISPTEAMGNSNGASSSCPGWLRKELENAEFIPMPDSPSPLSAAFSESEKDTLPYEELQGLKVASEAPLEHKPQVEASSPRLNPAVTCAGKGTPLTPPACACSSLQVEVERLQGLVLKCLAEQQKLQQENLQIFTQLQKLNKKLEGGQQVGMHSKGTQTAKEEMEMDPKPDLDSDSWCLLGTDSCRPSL

[7] = biological target: T3, Serine/threonine-protein kinase D3 (Homo sapiens, UniProt O94806)
T3 sequence (O94806 whole entry): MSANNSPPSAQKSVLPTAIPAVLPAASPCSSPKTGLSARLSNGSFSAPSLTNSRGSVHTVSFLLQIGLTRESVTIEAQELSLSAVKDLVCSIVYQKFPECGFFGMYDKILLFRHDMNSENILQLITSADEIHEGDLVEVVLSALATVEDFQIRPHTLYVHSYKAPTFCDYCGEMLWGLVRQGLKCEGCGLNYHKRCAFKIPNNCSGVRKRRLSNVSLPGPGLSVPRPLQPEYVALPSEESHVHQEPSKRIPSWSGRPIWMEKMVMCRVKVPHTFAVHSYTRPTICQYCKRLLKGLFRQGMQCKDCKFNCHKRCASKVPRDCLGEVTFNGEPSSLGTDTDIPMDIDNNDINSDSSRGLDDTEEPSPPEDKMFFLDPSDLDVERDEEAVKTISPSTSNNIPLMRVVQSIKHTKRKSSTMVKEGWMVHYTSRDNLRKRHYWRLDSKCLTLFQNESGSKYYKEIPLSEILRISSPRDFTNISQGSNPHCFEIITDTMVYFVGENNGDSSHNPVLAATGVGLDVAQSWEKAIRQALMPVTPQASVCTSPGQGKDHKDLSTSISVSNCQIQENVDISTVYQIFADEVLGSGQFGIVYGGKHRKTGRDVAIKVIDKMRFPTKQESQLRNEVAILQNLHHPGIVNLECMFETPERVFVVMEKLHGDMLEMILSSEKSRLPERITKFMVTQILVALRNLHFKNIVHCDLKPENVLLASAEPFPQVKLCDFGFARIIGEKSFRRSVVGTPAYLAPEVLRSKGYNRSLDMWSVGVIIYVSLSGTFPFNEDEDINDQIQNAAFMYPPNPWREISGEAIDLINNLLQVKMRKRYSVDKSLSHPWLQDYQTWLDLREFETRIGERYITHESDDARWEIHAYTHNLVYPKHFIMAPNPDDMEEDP

Ephrin type-A receptor 7 = Ephrin type-A receptor 7 (Homo sapiens, UniProt Q15375)
[8] = biological target: Tyrosine-protein kinase Yes (Homo sapiens, UniProt P07947)
[9] = biological target: Cyclin-dependent kinase 12 (Homo sapiens, UniProt Q9NYV4)
[10] = biological target: Serine/threonine-protein kinase B-raf (Homo sapiens, UniProt P15056)
[11] = biological target: Inosine-5'-monophosphate dehydrogenase 2 (Homo sapiens, UniProt P12268)
[12] = biological target: MAP/microtubule affinity-regulating kinase 3 (Homo sapiens, UniProt P27448)
[13] = biological target: TRAF2 and NCK-interacting protein kinase (Homo sapiens, UniProt Q9UKE5)
Also: in the data inactive means no Kd found up to 30 µM.

Serine/threonine-protein kinase B-raf, sequence (P15056 whole entry): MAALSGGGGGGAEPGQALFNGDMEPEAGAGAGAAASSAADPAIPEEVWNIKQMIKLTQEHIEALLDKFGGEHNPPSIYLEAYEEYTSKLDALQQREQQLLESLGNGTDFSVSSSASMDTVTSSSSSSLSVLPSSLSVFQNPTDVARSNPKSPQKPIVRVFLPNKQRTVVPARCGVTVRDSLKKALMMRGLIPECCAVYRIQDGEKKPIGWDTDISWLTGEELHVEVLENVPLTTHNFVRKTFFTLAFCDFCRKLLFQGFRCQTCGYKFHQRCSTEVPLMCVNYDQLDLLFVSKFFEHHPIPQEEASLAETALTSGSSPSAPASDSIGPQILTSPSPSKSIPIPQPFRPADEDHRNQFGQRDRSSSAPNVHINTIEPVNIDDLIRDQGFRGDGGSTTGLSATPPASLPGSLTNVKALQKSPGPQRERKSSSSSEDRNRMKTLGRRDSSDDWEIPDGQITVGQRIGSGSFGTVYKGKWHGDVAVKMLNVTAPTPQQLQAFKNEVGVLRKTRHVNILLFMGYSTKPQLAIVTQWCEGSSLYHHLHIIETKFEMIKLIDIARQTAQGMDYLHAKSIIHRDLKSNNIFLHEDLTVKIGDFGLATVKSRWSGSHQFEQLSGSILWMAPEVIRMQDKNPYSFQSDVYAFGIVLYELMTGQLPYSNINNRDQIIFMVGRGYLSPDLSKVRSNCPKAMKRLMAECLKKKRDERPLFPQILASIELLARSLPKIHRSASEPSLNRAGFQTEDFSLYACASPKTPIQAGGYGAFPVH
Casein kinase I isoform delta, sequence (P48730 whole entry, canonical isoform): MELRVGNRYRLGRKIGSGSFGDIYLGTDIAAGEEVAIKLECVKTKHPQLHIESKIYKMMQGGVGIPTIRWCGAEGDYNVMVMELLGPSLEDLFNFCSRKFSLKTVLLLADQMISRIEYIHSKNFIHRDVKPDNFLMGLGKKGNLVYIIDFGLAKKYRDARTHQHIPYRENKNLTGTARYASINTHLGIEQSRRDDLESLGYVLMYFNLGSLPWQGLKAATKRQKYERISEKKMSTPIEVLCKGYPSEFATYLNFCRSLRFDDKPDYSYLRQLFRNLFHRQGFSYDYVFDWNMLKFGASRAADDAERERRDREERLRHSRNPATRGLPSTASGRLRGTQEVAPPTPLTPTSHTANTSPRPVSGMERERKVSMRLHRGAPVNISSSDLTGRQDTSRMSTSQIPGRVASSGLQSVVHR
Ephrin type-A receptor 7, sequence (Q15375 whole entry): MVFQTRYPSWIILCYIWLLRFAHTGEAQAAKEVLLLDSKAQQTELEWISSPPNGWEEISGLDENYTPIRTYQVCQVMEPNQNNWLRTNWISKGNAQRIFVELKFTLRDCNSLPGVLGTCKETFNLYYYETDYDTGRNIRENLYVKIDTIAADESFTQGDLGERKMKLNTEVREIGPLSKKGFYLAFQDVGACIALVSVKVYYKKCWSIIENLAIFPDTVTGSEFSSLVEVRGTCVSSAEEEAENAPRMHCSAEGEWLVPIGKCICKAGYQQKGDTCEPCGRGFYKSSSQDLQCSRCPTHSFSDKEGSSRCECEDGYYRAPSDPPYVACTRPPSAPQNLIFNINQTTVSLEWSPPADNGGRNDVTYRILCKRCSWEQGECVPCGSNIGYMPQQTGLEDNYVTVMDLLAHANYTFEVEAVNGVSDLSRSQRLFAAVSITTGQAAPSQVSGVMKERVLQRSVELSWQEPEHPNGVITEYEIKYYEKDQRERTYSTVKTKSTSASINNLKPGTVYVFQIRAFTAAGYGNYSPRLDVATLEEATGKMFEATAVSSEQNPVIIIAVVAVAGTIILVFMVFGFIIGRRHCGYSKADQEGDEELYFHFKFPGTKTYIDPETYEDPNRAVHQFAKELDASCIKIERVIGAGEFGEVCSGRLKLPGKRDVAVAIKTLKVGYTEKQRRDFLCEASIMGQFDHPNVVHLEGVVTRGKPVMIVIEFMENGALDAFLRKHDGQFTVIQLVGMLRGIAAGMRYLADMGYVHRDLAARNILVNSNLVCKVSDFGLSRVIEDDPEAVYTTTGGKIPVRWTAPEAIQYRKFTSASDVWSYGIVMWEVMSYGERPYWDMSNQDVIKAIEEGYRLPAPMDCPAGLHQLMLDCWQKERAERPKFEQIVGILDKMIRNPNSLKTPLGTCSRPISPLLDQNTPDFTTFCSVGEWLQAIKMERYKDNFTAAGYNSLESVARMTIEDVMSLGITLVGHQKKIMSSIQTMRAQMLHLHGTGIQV
TRAF2 and NCK-interacting protein kinase, sequence (Q9UKE5 whole entry): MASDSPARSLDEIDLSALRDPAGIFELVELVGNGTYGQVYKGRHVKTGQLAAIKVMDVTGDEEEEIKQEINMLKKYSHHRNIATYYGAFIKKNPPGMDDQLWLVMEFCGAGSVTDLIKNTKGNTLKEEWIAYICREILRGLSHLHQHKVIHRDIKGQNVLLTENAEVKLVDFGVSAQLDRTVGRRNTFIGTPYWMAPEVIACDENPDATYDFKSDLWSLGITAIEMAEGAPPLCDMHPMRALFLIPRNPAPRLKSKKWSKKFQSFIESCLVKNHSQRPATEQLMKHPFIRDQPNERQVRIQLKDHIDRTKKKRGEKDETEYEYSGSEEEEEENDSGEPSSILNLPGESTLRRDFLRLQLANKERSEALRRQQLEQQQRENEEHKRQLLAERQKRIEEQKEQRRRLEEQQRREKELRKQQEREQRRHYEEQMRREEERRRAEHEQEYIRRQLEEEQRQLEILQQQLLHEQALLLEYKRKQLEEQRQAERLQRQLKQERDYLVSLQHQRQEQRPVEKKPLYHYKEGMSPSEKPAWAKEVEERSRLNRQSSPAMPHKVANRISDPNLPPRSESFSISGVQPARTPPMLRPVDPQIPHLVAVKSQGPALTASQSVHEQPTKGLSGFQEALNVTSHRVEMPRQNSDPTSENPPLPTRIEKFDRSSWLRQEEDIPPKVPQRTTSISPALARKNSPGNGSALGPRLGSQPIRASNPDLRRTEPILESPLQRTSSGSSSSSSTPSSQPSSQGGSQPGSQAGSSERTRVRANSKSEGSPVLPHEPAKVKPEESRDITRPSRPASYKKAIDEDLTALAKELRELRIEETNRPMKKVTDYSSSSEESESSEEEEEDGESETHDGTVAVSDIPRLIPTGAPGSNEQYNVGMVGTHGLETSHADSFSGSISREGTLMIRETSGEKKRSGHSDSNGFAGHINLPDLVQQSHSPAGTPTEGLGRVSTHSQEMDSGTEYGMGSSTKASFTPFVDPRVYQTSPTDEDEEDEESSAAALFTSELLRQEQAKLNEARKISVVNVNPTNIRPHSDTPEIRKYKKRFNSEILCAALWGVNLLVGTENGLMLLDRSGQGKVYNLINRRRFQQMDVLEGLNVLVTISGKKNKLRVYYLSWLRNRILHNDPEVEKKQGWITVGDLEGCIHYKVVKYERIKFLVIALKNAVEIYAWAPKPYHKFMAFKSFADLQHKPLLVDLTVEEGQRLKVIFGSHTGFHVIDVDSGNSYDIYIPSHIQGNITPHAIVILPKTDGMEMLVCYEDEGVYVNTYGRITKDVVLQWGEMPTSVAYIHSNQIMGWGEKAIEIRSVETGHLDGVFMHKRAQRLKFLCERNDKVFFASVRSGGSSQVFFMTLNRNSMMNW
Cyclin-dependent kinase 12, sequence (Q9NYV4 whole entry): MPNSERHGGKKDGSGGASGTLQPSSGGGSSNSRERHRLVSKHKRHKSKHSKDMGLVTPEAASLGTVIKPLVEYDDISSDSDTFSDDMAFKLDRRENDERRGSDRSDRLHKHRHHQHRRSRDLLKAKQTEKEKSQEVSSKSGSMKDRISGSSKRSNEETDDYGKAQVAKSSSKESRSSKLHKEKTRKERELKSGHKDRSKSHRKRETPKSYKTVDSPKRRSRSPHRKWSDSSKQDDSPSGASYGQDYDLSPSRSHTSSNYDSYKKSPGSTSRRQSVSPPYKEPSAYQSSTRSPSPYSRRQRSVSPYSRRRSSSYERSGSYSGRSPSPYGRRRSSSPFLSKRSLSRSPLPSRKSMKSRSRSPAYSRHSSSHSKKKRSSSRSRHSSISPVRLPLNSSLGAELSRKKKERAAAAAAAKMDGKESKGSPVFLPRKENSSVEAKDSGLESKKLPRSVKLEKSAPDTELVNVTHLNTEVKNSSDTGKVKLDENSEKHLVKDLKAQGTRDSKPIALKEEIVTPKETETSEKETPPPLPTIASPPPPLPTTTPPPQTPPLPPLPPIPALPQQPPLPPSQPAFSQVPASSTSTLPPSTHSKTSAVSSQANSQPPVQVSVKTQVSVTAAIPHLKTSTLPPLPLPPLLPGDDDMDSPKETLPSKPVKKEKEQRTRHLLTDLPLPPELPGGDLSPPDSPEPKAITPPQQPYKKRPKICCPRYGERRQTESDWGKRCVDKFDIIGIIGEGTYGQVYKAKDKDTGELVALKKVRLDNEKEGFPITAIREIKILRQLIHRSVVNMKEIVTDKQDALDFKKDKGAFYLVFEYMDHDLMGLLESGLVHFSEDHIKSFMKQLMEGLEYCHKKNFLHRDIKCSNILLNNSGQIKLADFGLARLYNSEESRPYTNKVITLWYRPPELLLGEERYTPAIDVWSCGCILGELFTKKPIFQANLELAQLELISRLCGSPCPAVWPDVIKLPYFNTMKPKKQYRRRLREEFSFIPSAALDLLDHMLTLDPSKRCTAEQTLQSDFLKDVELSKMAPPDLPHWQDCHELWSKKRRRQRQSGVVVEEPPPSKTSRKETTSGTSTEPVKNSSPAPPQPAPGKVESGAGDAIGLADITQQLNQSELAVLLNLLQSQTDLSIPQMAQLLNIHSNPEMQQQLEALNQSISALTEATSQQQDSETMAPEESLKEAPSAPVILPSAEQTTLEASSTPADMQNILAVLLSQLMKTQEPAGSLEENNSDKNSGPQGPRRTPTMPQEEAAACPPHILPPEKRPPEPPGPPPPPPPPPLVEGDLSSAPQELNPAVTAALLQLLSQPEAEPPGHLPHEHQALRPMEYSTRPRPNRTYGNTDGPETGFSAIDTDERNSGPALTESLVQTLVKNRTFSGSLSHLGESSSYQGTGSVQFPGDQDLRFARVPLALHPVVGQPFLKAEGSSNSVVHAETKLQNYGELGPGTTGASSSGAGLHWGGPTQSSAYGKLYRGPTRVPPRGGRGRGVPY

SMILES	Kd [1]	Kd [2]	Kd [3]	Kd [4]	Kd [5]	Kd [6]	Kd [7]	Kd (Ephrin type-A receptor 7)	Kd [8]	Kd [9]	Kd [10]	Kd [11]	Kd [12]	Kd [13]
CNC(=O)c1cc(COc2nnc(Nc3ccc(Cl)cc3)c3ccoc23)ccn1 [TELATINIB]	> 30 µM (inactive)	> 30 µM (inactive)	> 30 µM (inactive)	> 30 µM (inactive)	> 30 µM (inactive)	> 30 µM (inactive)	> 30 µM (inactive)	> 30 µM (inactive)	> 30 µM (inactive)	> 30 µM (inactive)	> 30 µM (inactive)	> 30 µM (inactive)	> 30 µM (inactive)	
Cc1cc(-c2cc(OC(=O)c3ccccc3)ccc2Cl)cc2nnc(Nc3ccc(OCCN4CCCC4)cc3)nc12 [TG100-801]	> 30 µM (inactive)	> 30 µM (inactive)	> 30 µM (inactive)	> 30 µM (inactive)	> 30 µM (inactive)	> 30 µM (inactive)	> 30 µM (inactive)	> 30 µM (inactive)	4.43 µM (active)	> 30 µM (inactive)	> 30 µM (inactive)		> 30 µM (inactive)	> 30 µM (inactive)
Cc1cc(C(=O)Nc2cc(Oc3ccc4nc(NC(=O)C5CC5)cn4n3)ccc2C)n(C)n1 [TAK-593]	> 30 µM (inactive)		> 30 µM (inactive)	> 30 µM (inactive)	> 30 µM (inactive)	> 30 µM (inactive)	> 30 µM (inactive)	> 30 µM (inactive)		> 30 µM (inactive)	> 30 µM (inactive)	> 30 µM (inactive)	> 30 µM (inactive)	> 30 µM (inactive)
NC[C@@](O)(c1ccc(Cl)cc1)c1ccc(-c2cn[nH]c2)cc1 [AT-13148]	> 30 µM (inactive)		> 30 µM (inactive)	> 30 µM (inactive)	> 30 µM (inactive)	> 30 µM (inactive)	> 30 µM (inactive)	> 30 µM (inactive)	> 30 µM (inactive)	> 30 µM (inactive)	> 30 µM (inactive)	> 30 µM (inactive)	> 30 µM (inactive)	> 30 µM (inactive)
Cc1c(NC(=O)OC[C@@H]2COCCN2)cn2ncnc(Nc3ccc4c(cnn4Cc4cccc(F)c4)c3)c12 [AC-480]	> 30 µM (inactive)	> 30 µM (inactive)	> 30 µM (inactive)	> 30 µM (inactive)	> 30 µM (inactive)	> 30 µM (inactive)	> 30 µM (inactive)	> 30 µM (inactive)	> 30 µM (inactive)	> 30 µM (inactive)	> 30 µM (inactive)		> 30 µM (inactive)	> 30 µM (inactive)
C=CCN(/C=C1/C(=O)O[C@H](COC)[C@@]2(C)C1=C(O)C(=O)C1=C2[C@H](OC(C)=O)C[C@]2(C)C(=O)CC[C@@H]12)CC=C [SONOLISIB]	> 30 µM (inactive)	> 30 µM (inactive)	> 30 µM (inactive)	> 30 µM (inactive)	> 30 µM (inactive)	> 30 µM (inactive)	> 30 µM (inactive)		> 30 µM (inactive)	> 30 µM (inactive)	> 30 µM (inactive)		> 30 µM (inactive)	> 30 µM (inactive)
CNC(=O)c1ccc(Nc2ncc(C(F)(F)F)c(NCc3nccnc3N(C)S(C)(=O)=O)n2)cc1 [DEFACTINIB]	> 30 µM (inactive)	> 30 µM (inactive)	> 30 µM (inactive)	> 30 µM (inactive)	> 30 µM (inactive)	> 30 µM (inactive)	> 30 µM (inactive)	> 30 µM (inactive)	> 30 µM (inactive)	0.73 µM (active)	> 30 µM (inactive)		4.49 µM (active)	> 30 µM (inactive)
O[C@H]1CC[C@H](Nc2ncc3nc(Nc4c(F)cc(F)cc4F)n([C@H]4CCOC4)c3n2)CC1 [TANZISERTIB]	> 30 µM (inactive)	> 30 µM (inactive)	> 30 µM (inactive)	> 30 µM (inactive)	> 30 µM (inactive)	> 30 µM (inactive)	> 30 µM (inactive)	> 30 µM (inactive)	> 30 µM (inactive)	> 30 µM (inactive)	> 30 µM (inactive)		> 30 µM (inactive)	> 30 µM (inactive)
CCc1nc(C(N)=O)c(Nc2ccc(N3CCC(N4CCN(C)CC4)CC3)c(OC)c2)nc1NC1CCOCC1 [GILTERITINIB]	> 30 µM (inactive)	> 30 µM (inactive)	0.432 µM (active)	0.759 µM	2.35 µM (active)	> 30 µM (inactive)	> 30 µM (inactive)	2.98 µM (active)		> 30 µM (inactive)	> 30 µM (inactive)	> 30 µM (inactive)	> 30 µM (inactive)	> 30 µM (inactive)
CCN1CCN(Cc2ccc(Nc3ncc(F)c(-c4cc(F)c5nc(C)n(C(C)C)c5c4)n3)nc2)CC1 [ABEMACICLIB]	> 30 µM (inactive)	> 30 µM (inactive)	> 30 µM (inactive)	> 30 µM (inactive)	0.798 µM (active)	> 30 µM (inactive)	1.84 µM (active)		> 30 µM (inactive)	> 30 µM (inactive)	> 30 µM (inactive)	> 30 µM (inactive)	> 30 µM (inactive)	> 30 µM (inactive)
O=C(NC[C@H](O)CO)c1ccncc1Nc1ccc(I)cc1F [PIMASERTIB]	> 30 µM (inactive)	> 30 µM (inactive)	> 30 µM (inactive)	> 30 µM (inactive)	> 30 µM (inactive)	> 30 µM (inactive)	> 30 µM (inactive)		> 30 µM (inactive)	> 30 µM (inactive)	> 30 µM (inactive)	> 30 µM (inactive)	> 30 µM (inactive)	> 30 µM (inactive)
